Several values for one entry are separate records, joined by “and”; a condition that tells them apart may be missing. Equal values may be shown once. ± gives the expanded uncertainty stated by the source.
Experiment: molar heat capacity at constant pressure
Settings: 101.33 kPa, Crystal, PPMS instrument (Quantum Design)

O=P([O-])([O-])[O-].[Gd+3] [gadolinium orthophosphate]
Settings	molar heat capacity at constant pressure
0.525 K	7.722 ± 0.24 J/K/mol
0.536 K	8.106 ± 0.26 J/K/mol
0.547 K	8.475 ± 0.27 J/K/mol
0.558 K	8.855 ± 0.29 J/K/mol
0.569 K	9.277 ± 0.3 J/K/mol
0.58 K	9.631 ± 0.31 J/K/mol
0.591 K	10.11 ± 0.33 J/K/mol
0.602 K	10.69 ± 0.35 J/K/mol
0.614 K	11.24 ± 0.37 J/K/mol
0.625 K	11.83 ± 0.4 J/K/mol
0.637 K	12.57 ± 0.42 J/K/mol
0.648 K	13.42 ± 0.45 J/K/mol
0.659 K	14.37 ± 0.49 J/K/mol
0.67 K	15.29 ± 0.52 J/K/mol
0.681 K	16.55 ± 0.57 J/K/mol
0.693 K	17.9 ± 0.62 J/K/mol
0.703 K	19.56 ± 0.68 J/K/mol
0.715 K	21.6 ± 0.76 J/K/mol
0.726 K	24.07 ± 0.84 J/K/mol
0.73 K	25.16 ± 0.88 J/K/mol
0.733 K	26.31 ± 0.92 J/K/mol
0.737 K	27.55 ± 0.97 J/K/mol
0.738 K	27.92 ± 0.98 J/K/mol
0.742 K	29.69 ± 1 J/K/mol
0.743 K	29.92 ± 1.1 J/K/mol
0.745 K	31.34 ± 1.1 J/K/mol
0.747 K	31.86 ± 1.1 J/K/mol
0.75 K	33.48 ± 1.2 J/K/mol
0.751 K	34.37 ± 1.2 J/K/mol
0.752 K	35.17 ± 1.3 J/K/mol
0.755 K	37.19 ± 1.3 J/K/mol
0.756 K	37.83 ± 1.4 J/K/mol
0.758 K	40.08 ± 1.4 J/K/mol
0.76 K	41.57 ± 1.5 J/K/mol
0.763 K	44.62 ± 1.6 J/K/mol
0.764 K	46.25 ± 1.7 J/K/mol
0.765 K	47.54 ± 1.7 J/K/mol
0.768 K	50.76 ± 1.8 J/K/mol
0.77 K	52.55 ± 1.9 J/K/mol
0.772 K	53.77 ± 1.9 J/K/mol
0.773 K	54.78 ± 2 J/K/mol
0.776 K	54.21 ± 2 J/K/mol
0.777 K	51.7 ± 1.9 J/K/mol and 54.18 ± 2 J/K/mol
0.782 K	37.73 ± 1.4 J/K/mol
0.783 K	33.58 ± 1.2 J/K/mol
0.784 K	31.28 ± 1.1 J/K/mol
0.786 K	23.82 ± 0.85 J/K/mol
0.79 K	19.56 ± 0.69 J/K/mol
0.791 K	19.09 ± 0.67 J/K/mol
0.794 K	17.74 ± 0.62 J/K/mol
0.796 K	16.84 ± 0.59 J/K/mol
0.797 K	16.39 ± 0.57 J/K/mol
0.799 K	15.8 ± 0.54 J/K/mol
0.8 K	15.62 ± 0.54 J/K/mol
0.804 K	14.83 ± 0.51 J/K/mol
0.806 K	14.48 ± 0.49 J/K/mol
0.816 K	13.11 ± 0.45 J/K/mol
0.843 K	11.32 ± 0.35 J/K/mol
0.867 K	10.3 ± 0.32 J/K/mol
0.872 K	10.13 ± 0.32 J/K/mol
0.882 K	9.827 ± 0.31 J/K/mol
0.89 K	9.584 ± 0.3 J/K/mol
0.892 K	9.579 ± 0.3 J/K/mol
0.902 K	9.269 ± 0.29 J/K/mol
0.912 K	9.065 ± 0.29 J/K/mol
0.914 K	9.009 ± 0.28 J/K/mol
0.922 K	8.871 ± 0.28 J/K/mol
0.933 K	8.692 ± 0.27 J/K/mol
0.939 K	8.538 ± 0.27 J/K/mol
0.942 K	8.499 ± 0.27 J/K/mol
0.952 K	8.332 ± 0.26 J/K/mol
0.962 K	8.221 ± 0.26 J/K/mol
0.963 K	8.167 ± 0.26 J/K/mol
0.973 K	8.056 ± 0.25 J/K/mol
0.983 K	7.933 ± 0.25 J/K/mol
0.986 K	7.919 ± 0.25 J/K/mol
0.993 K	7.852 ± 0.25 J/K/mol
1.003 K	7.778 ± 0.25 J/K/mol
1.01 K	7.554 ± 0.24 J/K/mol
1.059 K	6.868 ± 0.22 J/K/mol
1.141 K	6.058 ± 0.2 J/K/mol
1.22 K	5.523 ± 0.18 J/K/mol
1.301 K	4.919 ± 0.16 J/K/mol
1.381 K	4.476 ± 0.15 J/K/mol
1.461 K	4.061 ± 0.14 J/K/mol
1.544 K	3.711 ± 0.14 J/K/mol
1.619 K	3.447 ± 0.18 J/K/mol
1.699 K	3.178 ± 0.42 J/K/mol
1.78 K	2.944 ± 0.14 J/K/mol
1.841 K	2.578 ± 0.12 J/K/mol
1.86 K	2.751 ± 0.12 J/K/mol
1.94 K	2.578 ± 0.1 J/K/mol
2.02 K	2.372 ± 0.092 J/K/mol
2.234 K	1.874 ± 0.072 J/K/mol
2.648 K	1.377 ± 0.049 J/K/mol
3.055 K	1.063 ± 0.037 J/K/mol
3.464 K	0.8457 ± 0.027 J/K/mol
3.872 K	0.6931 ± 0.022 J/K/mol
4.291 K	0.57 ± 0.018 J/K/mol
4.675 K	0.4911 ± 0.015 J/K/mol
5.081 K	0.4292 ± 0.013 J/K/mol
5.499 K	0.3415 ± 0.01 J/K/mol
5.896 K	0.3389 ± 0.01 J/K/mol
6.3 K	0.3079 ± 0.0093 J/K/mol
6.728 K	0.2809 ± 0.0085 J/K/mol
7.126 K	0.2659 ± 0.008 J/K/mol
7.523 K	0.2545 ± 0.0076 J/K/mol
7.936 K	0.2483 ± 0.0075 J/K/mol
8.343 K	0.2454 ± 0.0074 J/K/mol
8.747 K	0.246 ± 0.0074 J/K/mol
8.971 K	0.2476 ± 0.0074 J/K/mol
9.151 K	0.2497 ± 0.0075 J/K/mol
9.554 K	0.2573 ± 0.0077 J/K/mol
9.964 K	0.2698 ± 0.0081 J/K/mol
9.976 K	0.2696 ± 0.0081 J/K/mol
10.96 K	0.3114 ± 0.0094 J/K/mol
11.94 K	0.3719 ± 0.011 J/K/mol
12.94 K	0.4546 ± 0.014 J/K/mol
13.93 K	0.5628 ± 0.017 J/K/mol
14.93 K	0.6954 ± 0.021 J/K/mol
15.93 K	0.8555 ± 0.026 J/K/mol
16.93 K	1.039 ± 0.031 J/K/mol
17.94 K	1.247 ± 0.038 J/K/mol
18.95 K	1.476 ± 0.045 J/K/mol
19.95 K	1.752 ± 0.053 J/K/mol
20.95 K	2.036 ± 0.061 J/K/mol
21.96 K	2.353 ± 0.071 J/K/mol
22.97 K	2.692 ± 0.081 J/K/mol
23.97 K	3.053 ± 0.092 J/K/mol
24.98 K	3.44 ± 0.1 J/K/mol
25.98 K	3.849 ± 0.12 J/K/mol
26.99 K	4.279 ± 0.13 J/K/mol
28 K	4.714 ± 0.14 J/K/mol
29 K	5.169 ± 0.16 J/K/mol
30.01 K	5.631 ± 0.17 J/K/mol
32 K	6.652 ± 0.2 J/K/mol
34 K	7.603 ± 0.23 J/K/mol
36.02 K	8.663 ± 0.26 J/K/mol
38.05 K	9.792 ± 0.29 J/K/mol
40.06 K	10.89 ± 0.33 J/K/mol
42.08 K	12.02 ± 0.36 J/K/mol
44.09 K	13.17 ± 0.4 J/K/mol
46.11 K	14.35 ± 0.43 J/K/mol
48.12 K	15.55 ± 0.47 J/K/mol
50.14 K	16.75 ± 0.5 J/K/mol
53.15 K	18.58 ± 0.56 J/K/mol
56.16 K	20.4 ± 0.61 J/K/mol
59.19 K	22.22 ± 0.67 J/K/mol
62.22 K	24.02 ± 0.72 J/K/mol
65.24 K	25.8 ± 0.77 J/K/mol
68.26 K	27.54 ± 0.83 J/K/mol
71.29 K	29.29 ± 0.88 J/K/mol
74.3 K	31.02 ± 0.93 J/K/mol
77.33 K	32.72 ± 0.98 J/K/mol
80.35 K	34.4 ± 1 J/K/mol
85.39 K	37.09 ± 1.1 J/K/mol
92.14 K	40.56 ± 1.2 J/K/mol
98.9 K	43.87 ± 1.3 J/K/mol
105.7 K	47.02 ± 1.4 J/K/mol
112.4 K	50.06 ± 1.5 J/K/mol
119.2 K	53.01 ± 1.6 J/K/mol
126 K	55.84 ± 1.7 J/K/mol
132.7 K	58.53 ± 1.8 J/K/mol
139.5 K	61.13 ± 1.8 J/K/mol
146.3 K	63.67 ± 1.9 J/K/mol
153 K	65.98 ± 2 J/K/mol
159.8 K	68.28 ± 2 J/K/mol
166.6 K	70.53 ± 2.1 J/K/mol
173.3 K	72.7 ± 2.2 J/K/mol
180.1 K	74.71 ± 2.2 J/K/mol
186.8 K	76.76 ± 2.3 J/K/mol
193.6 K	78.76 ± 2.4 J/K/mol
200.4 K	80.59 ± 2.4 J/K/mol
207.1 K	82.32 ± 2.5 J/K/mol
213.8 K	84.09 ± 2.5 J/K/mol
220.6 K	85.76 ± 2.6 J/K/mol
227.4 K	87.27 ± 2.6 J/K/mol
234.1 K	88.95 ± 2.7 J/K/mol
240.9 K	90.53 ± 2.7 J/K/mol
247.7 K	92.18 ± 2.8 J/K/mol
254.4 K	93.53 ± 2.8 J/K/mol
261.1 K	94.92 ± 2.8 J/K/mol
267.9 K	96.45 ± 2.9 J/K/mol
274.6 K	97.84 ± 2.9 J/K/mol
281.3 K	98.99 ± 3 J/K/mol
288.1 K	100.29 ± 3 J/K/mol
294.8 K	101.42 ± 3 J/K/mol
301.6 K	102.56 ± 3.1 J/K/mol

Source: the NIST ThermoML archive (doi:10.1016/j.jct.2004.07.031)
